The source of these data is US20130089504A1, “Compositions Comprising Enzyme-Cleavable Hydromorphone Prodrug” (priority 2010, published 2013).

For data set [1], the target named is T1, trypsin (Bos taurus, UniProt P00760).
T1 construct: gene PRSS1
T1 sequence (P00760 24-246): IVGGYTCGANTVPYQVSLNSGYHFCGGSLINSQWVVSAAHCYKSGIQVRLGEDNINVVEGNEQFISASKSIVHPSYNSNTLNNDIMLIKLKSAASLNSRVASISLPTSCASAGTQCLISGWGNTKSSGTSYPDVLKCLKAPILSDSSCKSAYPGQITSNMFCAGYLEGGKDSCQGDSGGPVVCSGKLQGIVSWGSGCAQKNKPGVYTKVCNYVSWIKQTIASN
The data set is described as follows: In vitro trypsin conversion of prodrug Compound PC-5 to hydromorphone. It counts as biochemical. Particulars: no trypsin inhibitor. The method, then:
Compound PC-5 was exposed to trypsin as described. […] A 5-minute 37° C. pre-incubation of the reaction mixture without prodrug was conducted and then the prodrug was added to initiate the incubation. The reaction was conducted at 37° C. for 24 hr.

Data set [2] in a line: Pharmacokinetics of hydromorphone prodrug following IV administration to rats. The following applies: male, Sprague Dawley; rat IV, PC-5 2 mg/kg (0.29 μmol/kg); plasma; read-out: PC-5 Cmax ± sd. It counts as in vivo.
Data set [3] can be described thus: In vivo tolerability of Compound PC-5 in rats (IV). The following applies: rat IV. Here is the method: Male naïve Sprague-Dawley rats, 4 per dose, were used in the study. Rats were weighed, and then placed under a heat lamp for 15-20 minutes to dilate the lateral tail veins. Before dosing, rats were placed in Broome restrainers and the drug was introduced into one of the tail veins using a syringe and needle. […] Blood samples were collected 5 minutes post-dose via the saphenous vein. The rats were observed up to 24 hours.

The nature of data set [4]: In vitro stability of Compound PC-5 to household chemicals and enzyme preparations. It counts as physicochemical. Particulars: vodka, baking soda, WINDEX, vinegar at RT or 80° C.; GNC Super Digestive, tenderizer, subtilisn at RT; 1 or 24 hr. The method, then:
Samples were incubated as described. Aliquots were removed at 1 hr and 24 hr and stabilized by transferring each to a solution of 50% or 100% phosphoric acid to achieve a final pH of less than or equal to pH 4. The stabilized aliquots were then diluted 4- to 6-fold with water, vortex-mixed and applied to HPLC.
The percentage of Compound PC-5 remaining after exposure is indicated by the solid black bars and percentage conversion of Compound PC-5 to hydromorphone is indicated by the lightly shaded bars with a black outline.

For `CCN(CCNC(=O)[C@H](CCCCN)NC(=O)CC(=O)O)C(=O)Oc1ccc2c3c1O[C@H]1C(=O)CCC4[C@@H](C2)N(C)CC[C@@]341` (stereo partly drawn) [Compound PC-5, [2-((S)-2-malonylamino-6-amino-hexanoylamino)-ethyl]-ethyl-carbamic acid hydromorphone ester], in data set [1] (in vitro), the “trypsin-mediated release of hydromorphone” value is given as “trypsin can mediate release hydromorphone”. In addition, the “Rate of HM formation, Average ± sd” value in data set [1] (0.761 mM prodrug, 0.02 to 0.0228 mg/ml trypsin, Tris pH 8, 37° C.) stood at 106 ± 2 umols/h/umol trypsin. In addition, the half-life (in general, the time needed for the level to fall by half in the phase considered) at 0.761 mM in data set [1] (0.761 mM prodrug, 0.02 to 0.0228 mg/ml trypsin, Tris pH 8, 37° C., read-out: Prodrug trypsin half-life, Average ± sd (converted)) is 2.81 ± 0.23 h. In addition, the Cmax (in general, the peak of the concentration-time curve) in data set [2] is 3090 ± 360 ng/mL. In addition, the “dose rats can tolerate” value in data set [3] amounted to 9.7 µmol/kg. The Clinical observations result in data set [3] (33 mg/kg ([…]), observed up to 24 hours) was “Normal”. In data set [4], the “conversion of Compound PC-5 to hydromorphone” value is given as “less than 10%”.
